Series [1] is described as follows: Binding constant to LMWH determined with the heparin sensor. The text has this:
(§1) With the assistance of the heparin sensor and the methodology described previously (Yun et al., 1993), the inventors were able to determine the binding constant of heparin and LMWH to ATIII, protamine, and LMWP.

For series [2] the following is noted: cited from earlier work.
For series [3] the following is noted: cited from earlier work. The source holds these as a separate data set.
The test system of a further series is aPTT activity of heparin. As to the kind of experiment: Heparin neutralization by aPTT clotting assay. In kind it is biochemical, human. Conditions: heparin 1 mg. Here is the method: For the aPTT clotting assay, 15 μl of heparin solution (20 μg/ml) was mixed with 15 μl of solution containing various concentrations of protamine (0-60 μg/ml) or LMWP species (0-100 μg/ml). To the mixture, 100 μl of actin cephaloplastin and 100 μl of plasma were added. After 3 min of incubation, 100 μl of 0.02 M calcium chloride (preheated to 37° C.) was added and the clotting time was immediately measured using a fibrometer (Fibrosystem, Becton Dickinson Company, Cockeysville, Md.).

The nature of series [4]: Binding constant to heparin determined with the heparin sensor.
Description: as §1

Series [5] deals with anti-Xa activity of CY216 (LMWH). As to the kind of experiment: Neutralization of LMWH (CY216) by anti-Xa chromogenic substrate assay. The following applies: dose of 30 μg. In kind it is biochemical. The protocol:
(§2) Heparin neutralization by protamine and LMWP was also measured in plasma by anti-factor Xa chromogenic assay and activated partial thromboplastin time (aPTT) clotting assay (Yang et al., 1986). In brief, for the anti-factor Xa assay, a series of plasma samples containing 0.4 mg of heparin, 15 IU of ATIII, and various amounts of protamine (0-0.8 mg) or LMWP (0-0.4 mg) were prepared. One hundred microliters of the plasma sample were then mixed with 800 μl of Tris-HCl buffer (pH 7.4), followed by the addition of 100 μl of Factor Xa (7.1 nkat/ml). After a 3 min incubation at 37° C., 200 μl of […] substrate (0.5 mg/ml) were added. The reaction mixture was incubated for 5 min at 37° C. and then quenched by the addition of 200 μl of 20% acetic acid. The absorbance in the solution was measured at 405 nm, and the degree of heparin neutralization is proportional to this measured absorbance.
Neutralization of the anticoagulant functions of both heparin and LMWH by protamine and LMWP is studied in human plasma using the aPTT clotting assay and the chromagenic anti-Xa and anti-IIa assays (Yang et al., 1986). The aPTT values of the test samples, are measured using a fibrometer (Fibrosystem; Becton-Dickinson, Cockeysville, Md.), and the anti-Xa and anti-IIa activities are measured using the chromagenic substrates S-2222 and S-2238, respectively. […]

Series [6] can be described thus: Immunogenicity in mice, IgG antibody production by ELISA. The class given is in vivo. The following applies: immunized with 50 μg in CFA plus boosters; ELISA on wells coated with the same species. The protocol:
The immunogenicity of protamine and LMWP was examined in mice. The production of polyclonal antibodies was performed as described (Cooper and Paterson, 1991). Fifteen thin-skinned albino mice, ten for protamine and five for LMWP were included. Each mouse was immunized with 50 μg of either protamine or LMWP in the complete Freund's adjuvant (CFA). Four weeks later, animals were bled and first booster was given with 5 μg of protamine (or LMWP) in incomplete Freund's adjuvant (IFA). Second and third boosters were given at two-week intervals. Afterwards, blood was collected, allowed to clot, and centrifuged to collect serum. All sera were tested for IgG antibodies using a modified ELISA method (Singh et al., 1982). Protamine or LMWP was used to coat the wells of the microplate in order to capture their related antibodies. The detection antibody was goat-antimouse-IgG-alkaline phosphatase that was reacted with p-nitrophenylphosphate to produce the absorbance readings at 405 nm. The antigenicity of LMWP was examined by following the same ELISA method described above but by utilizing a LMWP-coated microplate for antibody detection in the protamine-immunized mice.
A general note: An ELISA detects its analyte on a solid surface through an enzyme-linked reagent.

Series [7] concerns anti-Xa activity of heparin. As to the kind of experiment: Heparin neutralization by anti-factor Xa chromogenic assay. Conditions: heparin 40 μg; half-points of ΔAbs in FIG. 5. The class given is biochemical, human. Here is the method:
as §2

Series [8] can be described thus: Blood glucose control in streptozotocin-diabetic rats. The class given is in vivo. Conditions: data from 6 rats. Here is the method: Induction of diabetes in rats was carried out by the injection of streptozotocin at a dose of 45 mg/kg body weight. Diabetes was confirmed 24 h after injection by measuring the tail blood glucose with a Lifescan Glucometer (One Touch II).

Where two headings read alike, the source gives them in different places.

Take Protamine: the “Binding Constant to LMWH” value in [1] was 1.1 ± 0.3 µM⁻¹; in series [1] (listed as protamine) it was 1.1 µM⁻¹. In addition, in series [2], the pKa result is reported as “about 10”. Besides, the “units of heparin neutralized by each milligram” value in series [3] (heparin derived from bovine lung tissue) is recorded as “approximately 90 units”; in [3] (heparin derived from porcine intestinal mucosa) it was about 115 units. In addition, the “amount required to completely neutralize the aPTT activity of heparin” value in the series on aPTT activity of heparin is about 1.7 mg. In addition, the “Binding Constant to Heparin” value in series [4] stood at 89.0 ± 2.0 µM⁻¹; in [4] (listed as protamine), 89 µM⁻¹. In addition, in [5], the “neutralization of the anti-Xa activity of CY216” value amounted to 60%. In addition, in series [6], the “mice with positive reaction for antibodies” value was 4 out of 10 and four out of ten. Besides, in [7], the “dose required for 50% heparin neutralization” value is 7 nmol.

In the case of insulin, in series [8], the “overall time span to preserve a low glucose level” value came out at 360 ± 50 min and the “time required to reach the minimum glucose level” value is 100 ± 20 min.
